Usually EC50 stands for the concentration that produces a half-maximal response. Low values mean a more potent agent, high ones a less potent agent.

This note sets out measurements from patent US10336746B1, “RAD51 inhibitors” (Cyteir Therapeutics, Inc., priority 2017, dated 2019).

Data set [1] concerns WI-38 cells (AID negative). The experiment in a line: Primary screening cell killing assay repeated in WI-38 cells (AID negative). The class given is cell-based. To be noted: Homo sapiens, 168 h, cell death on Day 7, Cell-Titer Glo. As to the method: (§1) Primary screening was a phenotypic screen that utilized the synthetic lethal interaction between AID and RAD51 to identify compounds that were both potent and on target. AID expressing cells are dependent upon RAD51 for survival; inhibiting RAD51 in AID positive cells results in a cytotoxic effect.
Percent cell death and EC50 values were calculated by comparing the cell viability of the compound treated wells to the non-treated wells. Normalized RLU values were obtained by subtracting the media well values from each of the wells in the same column, and then dividing that value by the DMSO treated cells values. The percent kill was then calculated by subtracting the normalized RLU value from 1 and multiplying by 100. The average normalized percent kill value and standard error of the mean was then calculated. The kill values were then inputted into Prism with the corresponding standard errors. In Prism a non-linear regression line was plotted with the data points using a semi-log scale, and the EC50 value was calculated.

Data set [2] relates to Daudi cell line (AID positive). The data set is described as follows: Primary screening cell killing assay, Daudi cell line (AID positive). To be noted: Homo sapiens, 168 h, cell death on Day 7, Cell-Titer Glo. Type of data set: cell-based. The protocol: as §1
The first step was to set up a cell killing assay in the Daudi cell line (AID positive). A 96 well u-bottom plate was prepared by writing the experiment number, plate number, date and initials in the top right corner of the plate lid. With a sterile 300 ml reservoir, and 25 ml serological pipette, evaporation buffer media was pipetted into reservoir in 25 ml increments. Using the liquid handler, 150 ul of evaporation buffer media was pipetted from reservoir into rows A and H, and Columns 1 and 12 of the 96 well u-bottom plate. Cell cultures were counted to obtain the density of cells per ml, and the culture viability. The cell density information was used to obtain 1,000,000 cells from culture using a 5 mL serological pipette into an epi tube. The cell density information from the culture was used to calculate the number of cells and volume of media needed for the assay to seed 1250 cells in 130 ul of media per available culture well in the 96 well u-bottom plate. Rows B through F were used for cells (50 wells in total), with row G left for an empty media control. The calculation was overestimated by 10 mL to account for the dead volume in the 300 ml reservoir. Once the media volume was calculated, the appropriate volume of media was pipetted in 25 mL increments into the 250 mL bottle using a 25 mL serological pipette. The 250 ml bottle was capped tightly, and placed into a 37° C. water bath for 2 minutes. While the culture media was warming, 10 mL of fresh media was pipetted from the 500 mL culture media bottle into a sterile 25 mL reservoir. Using the Eppendorf multichannel pipette, 130 ul of media was pipetted from the 25 mL reservoir into row G of the 96 well u-bottom plate. Once the 250 mL bottle of media was warmed, the volume of culture needed was pipetted into the bottle, and mixed gently with a 25 mL serological pipette as to not create bubbles, and then the contents of the bottle were pipetted into a new 300 mL reservoir. Using the liquid handler, 130 ul of culture was pipetted from the 300 mL reservoir into rows B through F of the 96 well u-bottom plate. Once the culture was added, the plate was placed into a 37° C. incubator until the compound master plate was prepared for use.
Two 96 well u-bottom plates were prepared by writing the master plate name in the upper right corner of the plate lid. Labeling one DMSO master and the other Media Master. The compounds of interest were obtained from the laboratory freezer, and placed into a 25 well storage box with a lid, and set the box aside. The compounds were vortexed after thawing but before use. Using an automatic multichannel pipette, 20 ul of 100% DMSO was pipetted into wells B3-B11 through G3-G11 of the DMSO master plate. For each compound on the master plate, 50 ul of the compound were pipetted in the appropriate well of row 2 (reference plate map to determine appropriate well). A serial dilution was prepared beginning by aspirating 20 ul from row 2 and mixing with row 3, repeating until row 11 was reached. Using the liquid handler, 194 ul of Daudi media was dispensed into wells B2-B11 through G2-G11 of the Media master plate. Using the liquid handler, 6 ul from the DMSO master plate was aspirated and dispensed into the media master plate, mixing 100 ul twice.
Compounds from master plate were then added to the culture plate. The culture plates were removed from the incubator, and set inside the biosafety cabinet. Using a liquid handler, 20 ul from wells B2 to B11 through G2 to G11 of master plate were aspirated, and dispensed into wells B2 to B11 through G2 to G11 of culture plate. This set was continued with each culture plate. […]

The nature of data set [3]: Bi-directional Caco-2 permeability. The class given is in vitro ADME. Particulars: human; for efflux ratio at 90 min: Caco-2, read-out: BA/AB Ratio; for Papp A→B at 90 min: Caco-2, apical to basolateral, read-out: AB Papp (cm/sec × 10^6); for Papp A→B at 90 min / Papp B→A at 90 min: 37 C, up to 90 minutes; for Papp B→A at 90 min: Caco-2, basolateral to apical, read-out: BA Papp (cm/sec × 10^6). The protocol:
Bi-directional Caco-2 permeability was assayed. Caco-2 cells were seeded onto permeable polycarbonate supports and allowed to differentiate for about 3 weeks prior to being used in the assays. The cells were then exposed to the compounds from either the apical or basolateral sides and incubated at 37 C for up to 90 minutes under light agitation. Compound transport was then measured using LC/MS/MS analysis at 30, 60, and 90 minutes.
In general terms: Caco-2 monolayers are a common model of the intestinal barrier.

Where [4] appears, read: Caco-2, Caco-2, AB direction, read-out: AB Recovery %.
Setting [5] is: Caco-2, Caco-2, BA direction, read-out: BA Recovery %.

Read-outs that look alike come from different tables or passages of the source.

As for `CC(C)OC(=O)NC12CCC(c3ncc(-c4ccc(NC(=O)NCc5ccccn5)cc4S(=O)(=O)NC(C)(C)C)s3)(CC1)CC2` [Ex. 19, isopropyl (4-(5-(2-(N-(tert-butyl)sulfamoyl)-4-(3-(pyridin-2-ylmethyl)ureido)phenyl)thiazol-2-yl)bicyclo[2.2.2]octan-1-yl)carbamate], the EC50 is more than 1000 nM in data set [1] and not above 100 nM in data set [2].
For `CC(C)OC(=O)N[C@H]1CC[C@H](c2ncc(-c3ccc(NC(=O)OCc4ccccc4F)cc3S(=O)(=O)NC(C)(C)C)s2)CC1` [Ex. 70, trans-isopropyl N-[4-[5-[2-(tert-butylsulfamoyl)-4-[(2-fluorophenyl)methoxycarbonylamino]phenyl]thiazol-2-yl]cyclohexyl]carbamate], the EC50 in data set [1] is more than 1000 nM; in data set [2], not above 100 nM.
Turning to `CC(C)NC(=O)OC12CCC(c3ncc(-c4ccc(NC(=O)NCc5ccccc5)cc4S(=O)(=O)NC(C)(C)C)s3)(CC1)CC2` [Ex. 61, [1-[5-[4-(benzylcarbamoylamino)-2-(tert-butylsulfamoyl)phenyl]thiazol-2-yl]-4-bicyclo[2.2.2]octanyl]N-isopropylcarbamate], the EC50 in data set [1] and in data set [2] was more than 1000 nM each time.
On to `CC(C)OC(=O)Nc1ccc(-c2cnc([C@H]3CC[C@H](NC(=O)OC4CCCC4)CC3)s2)c(S(=O)(=O)NC(C)(C)C)c1` [Ex. 7, trans-isopropyl N-[3-(tert-butylsulfamoyl)-4-[2-[4-(cyclopentoxycarbonylamino)cyclohexyl]thiazol-5-yl]phenyl]carbamate], for which the EC50 in data set [2] lay in the range of 100 to 1000 nM. Besides, the recovery at 90 min in data set [3] (setting [4]) stood at 55.9%. Also, the recovery at 90 min in data set [3] (setting [5]) worked out at 92%. In addition, in data set [3], the efflux ratio at 90 min was determined as 1.2, the Papp A→B at 90 min is 1.7 ×10⁻⁶ cm/s and the Papp B→A at 90 min was 2.1 ×10⁻⁶ cm/s.
For the compound `CC(C)NC(=O)O[C@H]1CC[C@H](c2ncc(-c3ccc(NC(=O)NCc4ccccc4)cc3S(=O)(=O)NC(C)(C)C)s2)CC1` [Ex. 21, (1r,4r)-4-(5-(4-(3-benzylureido)-2-(N-(tert-butyl)sulfamoyl)phenyl)thiazol-2-yl)cyclohexyl isopropylcarbamate], the EC50 in data set [2] was not above 100 nM. For the same compound, the recovery at 90 min in data set [3] (setting [4]) turned out to be 58.6%. Further, in data set [3] (setting [5]), the recovery at 90 min is 78.3%. Moreover, in data set [3], the efflux ratio at 90 min worked out at 3, the Papp A→B at 90 min came out at 3.6 ×10⁻⁶ cm/s and the Papp B→A at 90 min was found to be 10.7 ×10⁻⁶ cm/s.
In data set [2], `CC(C)(C)NS(=O)(=O)c1cc(NC(=O)NCc2ccccn2)ccc1-c1cnc(C2CCC(NC(=O)OC(C)(C)C)CC2)s1` (stereo not drawn) [Ex. 45, tert-butyl ((1r,4r)-4-(5-(2-(N-(tert-butyl)sulfamoyl)-4-(3-(pyridin-2-ylmethyl)ureido)phenyl)thiazol-2-yl)cyclohexyl)carbamate] had an EC50 not above 100 nM. The recovery at 90 min in data set [3] (setting [4]) was 73.6%. The recovery at 90 min in data set [3] (setting [5]) turned out to be 84.4%. In data set [3], the efflux ratio at 90 min turned out to be 1.4, the Papp A→B at 90 min was determined as 7.6 ×10⁻⁶ cm/s and the Papp B→A at 90 min is 10.8 ×10⁻⁶ cm/s.
`CC(C)OC(=O)Nc1ccc(-c2cnc([C@@H]3CC[C@@H](NC(=O)OC(C)C)CN3)s2)c(S(=O)(=O)NC(C)(C)C)c1` (relative stereo) [Ex. 63, trans-isopropyl N-[6-[5-[2-(tert-butylsulfamoyl)-4-(isopropoxycarbonylamino)phenyl]thiazol-2-yl]-3-piperidyl]carbamate] displayed an EC50 in data set [2] of 100 to 1000 nM. In addition, the recovery at 90 min in data set [3] (setting [4]) was determined as 83.6%. For the same compound, in data set [3] (setting [5]), the recovery at 90 min amounted to 90%. For the same compound, in data set [3], the efflux ratio at 90 min was found to be 2.5, the Papp A→B at 90 min is 10.5 ×10⁻⁶ cm/s and the Papp B→A at 90 min came out at 26.7 ×10⁻⁶ cm/s.
Compound `CC(C)OC(=O)N[C@H]1CC[C@H](c2ncc(-c3ccc(NC(=O)OC[C@H]4CCCN4C)cc3S(=O)(=O)NC(C)(C)C)s2)CC1` [Ex. 34, isopropyl ((1R,4r)-4-(5-(2-(N-(tert-butyl)sulfamoyl)-4-(((((R)-1-methylpyrrolidin-2-yl)methoxy)carbonyl)amino)phenyl)thiazol-2-yl)cyclohexyl)carbamate] gave a 50% effective concentration (EC50) in data set [2] of 100 to 1000 nM. Besides, the recovery at 90 min in data set [3] (setting [4]) was determined as 98.2%. For the same compound, in data set [3] (setting [5]), the recovery at 90 min stood at 96.8%. Also, in data set [3], the efflux ratio at 90 min stood at 104, the Papp A→B at 90 min is 0.4 ×10⁻⁶ cm/s and the Papp B→A at 90 min stood at 45.2 ×10⁻⁶ cm/s.
`CC(C)OC(=O)N[C@H]1CC[C@H](c2ncc(-c3ccc(NC(=O)NCc4ccccc4F)cc3S(=O)(=O)NC(C)(C)C)s2)CC1` [Ex. 28, isopropyl ((1r,4r)-4-(5-(2-(N-(tert-butyl)sulfamoyl)-4-(3-(2-fluorobenzyl)ureido)phenyl)thiazol-2-yl)cyclohexyl)carbamate] had an EC50 in data set [2] not above 100 nM. Besides, in data set [3] (setting [4]), the recovery at 90 min came to 66.9%. Besides, the recovery at 90 min in data set [3] (setting [5]) came out at 81%. Moreover, in data set [3], the efflux ratio at 90 min came to 1.7, the Papp A→B at 90 min was found to be 1.9 ×10⁻⁶ cm/s and the Papp B→A at 90 min turned out to be 3.3 ×10⁻⁶ cm/s.
On to `CC(C)OC(=O)Nc1ccc(-c2cnc(N3CCN(C(=O)OC(C)C)CC3)s2)c(S(=O)(=O)NC(C)(C)C)c1` [Ex. 5, isopropyl 4-[5-[2-(tert-butylsulfamoyl)-4-(isopropoxycarbonylamino)phenyl]thiazol-2-yl]piperazine-1-carboxylate], for which the EC50 in data set [2] is more than 1000 nM. The recovery at 90 min in data set [3] (setting [4]) stood at 34.7%. Also, in data set [3] (setting [5]), the recovery at 90 min is 80.8%. Besides, in data set [3], the efflux ratio at 90 min came out at 0.4, the Papp A→B at 90 min came to 5.9 ×10⁻⁶ cm/s and the Papp B→A at 90 min stood at 2.2 ×10⁻⁶ cm/s.
Compound `CC(C)OC(=O)Nc1ccc(-c2cnc([C@H]3CC[C@H](NC(=O)OC(C)(C)C)CC3)s2)c(S(=O)(=O)NC(C)(C)C)c1` [Ex. 44, trans-isopropyl N-[4-[2-[4-(tert-butoxycarbonylamino)cyclohexyl]thiazol-5-yl]-3-(tert-butylsulfamoyl)phenyl]carbamate] had an EC50 in data set [2] of more than 1000 nM. In addition, the recovery at 90 min in data set [3] (setting [4]) was found to be 36.2%. The recovery at 90 min in data set [3] (setting [5]) is 69.4%. Also, in data set [3], the efflux ratio at 90 min turned out to be 1.3, the Papp A→B at 90 min was 3.2 ×10⁻⁶ cm/s and the Papp B→A at 90 min came to 4.2 ×10⁻⁶ cm/s.
Take `CC(C)NC(=O)O[C@H]1CC[C@H](c2ncc(-c3ccc(NC(=O)OC(C)C)cc3S(=O)(=O)NC(C)(C)C)s2)CC1` [Ex. 20, trans-isopropyl N-[3-(tert-butylsulfamoyl)-4-[2-[4-(isopropylcarbamoyloxy)cyclohexyl]thiazol-5-yl]phenyl]carbamate]: the EC50 in data set [2] is more than 1000 nM. Also, the recovery at 90 min in data set [3] (setting [4]) was determined as 44.8%. In addition, the recovery at 90 min in data set [3] (setting [5]) was 96.6%. For the same compound, in data set [3], the efflux ratio at 90 min stood at 1.1, the Papp A→B at 90 min was 9.4 ×10⁻⁶ cm/s and the Papp B→A at 90 min stood at 10.4 ×10⁻⁶ cm/s.
